Blank lines part the entries; values can stand above or below the compound they belong to.
How the values were obtained:
[1] = method code SF-AS, from DOI: 10.1081/jlc-120022394
[2] = method code SF-AS, from DOI: 10.1093/oxfordjournals.jbchem.a131041, PMID: 939756; conditions: pH 7.4
[3] = method code SF-HPLC, from DOI: 10.1016/0168-3659(88)90058-2; conditions: pH 7.4
[4] = from Wadhwa, L.; Chandiran, S.; Sharma, P. (2004). Alkyl esters of 6-methoxy-2-naphthylacetic acid as potential prodrugs - Synthesis, physicochemical properties, chemical stability and enzymatic …; conditions: pH 7.4
[5] = method code SF-RC, from DOI: 10.1016/j.nucmedbio.2016.05.003, PMID: 27236283; conditions: pH 7.4
[6] = method code SF, from DOI: 10.1177/00220345800590120501, PMID: 6941993
[7] = pH 7.4
[8] = method code SF-AS, from DOI: 10.1016/0006-2952(90)90117-4, PMID: 2344368; conditions: pH 7.5
[9] = method code SF, from DOI: 10.1021/jm030399c, PMID: 14711317; conditions: pH 7.4
[10] = method code SF-AS, from DOI: 10.2116/analsci.8.761; conditions: pH 6.0
[11] = method code SF-FL, from DOI: 10.1016/0006-2952(96)00248-1, PMID: 8687500
[12] = not given; remark: listed apart in the source
[13] = method code SF-TN, from Korenman, I M.; Gurevich, N.; Kulagina, G. (1973). Extraction of certain n-alkylamines from aqueous solutions. Zh. Prikl. Khim., 46(3)726-728.
[14] = not given; remark: listed apart in the source
[15] = method code SF-AS, from DOI: 10.1016/0891-5849(94)00112-w, PMID: 7744299; conditions: pH 7.5
[16] = method code SF-GR, from DOI: 10.1021/jm00219a024, PMID: 926124
[17] = method code SF-AS, from DOI: 10.1016/j.bmcl.2014.05.029, PMID: 24930836
[18] = not given; remark: listed apart in the source
[19] = method code SF, from DOI: 10.1016/0041-008x(67)90079-8
[20] = method code SF-HPLC, from DOI: 10.1248/cpb.38.1906, PMID: 2268893; conditions: pH 6.9
[21] = method code SF-AS, from DOI: 10.1021/jm00197a006, PMID: 533877
[22] = method code SF-GLC, from DOI: 10.1021/jo01265a071
[23] = method code SF-AS, from DOI: 10.1021/jm00291a017, PMID: 5140011
[24] = method code SF-AS, from Suikov, S.Yu.; Bondarenko, A.V.; Bogza, S.L.; Lutsyk, A.I. (2003). Distribution of 5-aminopyrazoles and 5-aminoisoxazoles in the octanol-water system. Ukr. Khim. Zh. (Russ. Ed.), 69(5/6)31-34.
[25] = method code SF-AS, from DOI: 10.1021/acs.jmedchem.5b00731, PMID: 26397825; conditions: pH 7.4
[26] = not given; remark: listed apart in the source
[27] = method code SF-HPLC, from DOI: 10.1016/0378-5173(89)90133-6; conditions: pH 7.4
[28] = not given; remark: listed apart in the source
[29] = method code RP-HPLC, from DOI: 10.1021/jm00011a007, PMID: 7540207
[30] = method code SF, from DOI: 10.1002/etc.5620130110
[31] = method code SF-HPLC, from DOI: 10.1016/j.bmcl.2004.01.062, PMID: 15026043; conditions: pH 5.5
[32] = not given; remark: listed apart in the source
[33] = method code SF-HPLC, from DOI: 10.1016/j.ejps.2013.10.002, PMID: 24161609
[34] = method code SF-AS, from PMID: 7149911; conditions: pH 8.9
[35] = not given; remark: listed apart in the source

Compound: CCOC(=O)C(=Cc1ccc(OC)cc1)NC=O
logP [1]: 2.22

Compound: COC1=C(C2=C(OC)C(=O)c3cc4c(c(O)c3C2=O)C(=O)O[C@H](C)C4)C(=O)c2c(cc3c(c2O)C(=O)O[C@H](C)C3)C1=O
logD [2]: 0.37

Compound: C#CC1(OC(=O)OCCCCC(O)CO)CCC2C3CCC4=CC(=O)CCC4C3CCC21CC (stereo not given)
logD [3]: 3.75

Compound: COC(=O)Cc1ccc2cc(OC)ccc2c1
logD [4]: 3.04

Compound: C=COC(C)=O
logP [6]: 0.6

Compound: CCCCC(OC(Cc1ccccc1)C(=O)N1CCC(OCOC)CC1)C(=O)NC(CC1CCCCC1)[C@@H](O)CC(C(=O)NCCCNC(C)=O)C(C)C (stereo not given in full)
logD [7]: 4.3

Compound: OCc1cc(Br)cc(Br)c1O
logD [10]: 2.72

Compound: C#CC1(OC(=O)OCC(O)CO)CCC2C3CCC4=CC(=O)CCC4C3CCC21CC (stereo not given)
logD [3]: 3.22

Compound: O=C(O)P(=O)(O)O
logP [12]: -2

Compound: CCCN
logP [13]: 0.28

Compound: CC(Cl)Cl
logP [14]: 1.82

Compound: CC(C)(C)N=O
logD [15]: 0.91

Compound: CCCNC(=O)NO
logP [16]: -0.22

Compound: O=[N+]([O-])c1cncnc1
logP [18]: -0.05

Compound: Clc1nc(Cl)c(Cl)c(Cl)c1Cl
logP [19]: 3.53

Compound: CCOC(=O)C(=Cc1ccc(OC)c(OC)c1)NC=O
logP [1]: 1.97

Compound: CON=C(C(=O)NC1C(=O)N2C(C(=O)OCOC(=O)C(C)(C)C)=C(CN(C=O)C(C)=C(CCC(C)=O)SC(C)=O)CSC12)c1csc(N)n1 (stereo not given)
logD [20]: 2.16

Compound: CC(=O)C=NO
logP [21]: 0.39

Compound: CCCCCl
logP [22]: 2.39

Compound: S=C1CCCN1
logP [23]: -0.05

Compound: Cc1c(-c2ccccc2)n[nH]c1N
logP [24]: 1.65

Compound: COCCOCCOCCOCCOCN(C)c1ccc(C=C2CC(=Cc3ccc(N(C)COCCOCCOCCOCCOC)cc3)C2=O)cc1
logD [25]: 2.54

Compound: CNC(N)=S
logP [26]: -0.68

Compound: CCCCC(OC(Cc1ccccc1)C(=O)N1CCC(OCOC)CC1)C(=O)NC(CC1CCCCC1)[C@@H](O)CC(C(=O)NCCCN/C(=N/C)NC#N)C(C)C (stereo not given in full)
logD [7]: 4.4

Compound: Cc1nnn[nH]1
logP [28]: -0.49

Compound: COP(=O)(OC)C(O)C(Cl)(Cl)Cl (stereo not given)
logP [30]: 1.7

Compound: CN(C)C(=O)Oc1ccc(CC(NC(=O)C2N(S(=O)(=O)c3cnn(C)c3)CSC2(C)C)C(=O)OCCOc2ccccc2)cc1 (stereo not given)
logD [31]: 3.27

Compound: COCCOCCOCCOCCOCN(C)c1ccc(C=C2CCC(=Cc3ccc(N(C)COCCOCCOCCOCCOC)cc3)C2=O)cc1
logD [25]: 2.73

Compound: Cc1noc(N)c1-c1ccccc1
logP [24]: 2.02

Compound: O=C(O)/C=C/C(=O)O
logP [33]: -0.04

Compound: CON=C(C(=O)NC1C(=O)N2C(C(=O)OCOC(=O)C(C)(C)C)=C(CN(C=O)C(C)=C3CCOC(=O)S3)CSC12)c1csc(N)n1 (stereo not given)
logD [20]: 1.37

Compound: CN(N=O)C(N)=O
logD [34]: -0.4

Compound: CCCC[N+](=O)[O-]
logP [35]: 1.38

Compound: COc1cccc2c1C(=O)c1c(O)c3c(c(O)c1C2=O)CC(O)(C(C)=O)CC3OC1CC(NC(=O)OC2OC(C(=O)O)C(O)C(O)C2O)C(O)C(C)O1 (stereo not given)
logP [11]: -2

Further lines, results first:

logD [5]: 2.1
Compound: COc1cc(OCCF)cc(OC)c1NC(=O)c1ccc(Oc2cc3c(cc2C)CCC3(C)C)o1

logP: 3.86
Compound: CCN(CC)C(=O)C(C#N)=Cc1cc(OCOC(=O)C(C)(C)C)c(OCOC(=O)C(C)(C)C)c([N+](=O)[O-])c1

logD [8]: 1.56
Compound: COc1cccc2c1C(=O)c1c(O)c3c(c(O)c1C2=O)CC(O)(CCO)CC3OC1CC(NC(C)=O)C(O)C(C)O1 (stereo not given)

logD [9]: 1.84
Compound: O=C(NCCOCCNc1n[n+]([O-])c2ccccc2[n+]1[O-])c1cccc2cc3ccccc3nc12

logD [4]: 4.75
Compound: CCCCOC(=O)Cc1ccc2cc(OC)ccc2c1

logP [11]: -0.74
Compound: COc1cccc2c1C(=O)c1c(O)c3c(c(O)c1C2=O)CC(O)(C(=O)CO)CC3OC1CC(NC(=O)OCc2ccc(OC3OC(C(=O)O)C(O)C(O)C3O)c([N+](=O)[O-])c2)C(O)C(C)O1 (stereo not given)

logP [17]: 0.48
Compound: Cc1cc(=O)oc2cc(OCC(O)Cn3nnc4ccccc43)cc(OCC(O)Cn3nnc4ccccc43)c12 (stereo not given)

logD [8]: 1.27
Compound: COc1cccc2c1C(=O)c1c(O)c3c(c(O)c1C2=O)C[C@@](O)(C(=O)CO)C[C@@H]3O[C@H]1C[C@H](NC(C)=O)[C@H](O)[C@H](C)O1

logD [2]: 0.69
Compound: COC1=C(C2=C(OC)C(=O)c3c4c(cc(OC)c3C2=O)CC(C)OC4=O)C(=O)c2c(OC)cc3c(c2C1=O)C(=O)OC(C)C3 (stereo not given)

logP [17]: 0.61
Compound: Cc1cc2ncn(CC(O)COc3cc(OCC(O)Cn4cnc5cc(C)c(C)cc54)c4c(C)cc(=O)oc4c3)c2cc1C (stereo not given)

logP: 3.99
Compound: CCN(CC)C(=O)C(C#N)=Cc1cc(OC(=O)CC(=O)C(C)(C)C)c(OC(=O)CC(=O)C(C)(C)C)c([N+](=O)[O-])c1

logD [27]: 3.4
Compound: OC(Cn1ccnc1)c1ccc(CCc2ccccc2)cc1 (stereo not given)

logP [29]: 4.16
Compound: CCCCCN=c1ccn(Cc2ccc3ccccc3c2)c2cc(Cl)ccc12

logP [32]: 2.9
Compound: CC(=O)O[C@H]1C(=O)[C@@]2(C)[C@H]([C@H](OC(=O)c3ccccc3)[C@]3(O)C[C@H](OC(=O)[C@@H](O)Cc4ccccc4)C(C)=C1C3(C)C)[C@]1(OC(C)=O)CO[C@@H]1C[C@@H]2O

logD [5]: 1.51
Compound: COc1cc(NCCCF)cc(OC)c1NC(=O)c1ccc(Oc2cc3c(cc2C)CCC3(C)C)o1

logP [32]: 2.9
Compound: CC(=O)O[C@H]1C(=O)[C@@]2(C)[C@H]([C@H](OC(=O)c3ccccc3)[C@]3(O)C[C@H](OC(=O)[C@H](O)Cc4ccccc4)C(C)=C1C3(C)C)[C@]1(OC(C)=O)CO[C@@H]1C[C@@H]2O

— the SangsterLogP compilation
